Test results as given in PubChem BioAssay AID1996.
Converted amounts (≈) assume the structure as drawn.

Settings: buffer; pH 7.4; 200.0 µM

Going from `C=CCn1c(O)c(C(C)=Nc2ccc3c(c2)CCC3)c(=O)[nH]c1=O` to `Cn1c(=O)[nH]c(=O)c2c1[nH]c(=S)n2Cc1ccccc1`, the solubility kinetic rises from 0.8 µg/mL (≈ 2.46 µM) to > 43.2 µg/mL.

`Cc1ccc(NC(=O)CNC(=O)c2ccco2)cc1` and `O=C(O)CCCC(=O)Nc1ccc2c(c1)oc1ccccc12` cannot be ordered by solubility kinetic: > 38.7 µg/mL for the first, > 44.6 µg/mL for the second.

Compared with `O=C(Nc1cccc(C(=O)O)c1)/C(=C\c1ccco1)NC(=O)c1ccccc1`, `COc1cccc(OCC(=O)Nc2ccccc2-c2ccccc2)c1` is 34-fold lower in solubility kinetic: 51 µg/mL (≈ 136 µM) for the first, 1.5 µg/mL (≈ 4.5 µM) for the second.

Going from `CCCCc1nc(Cl)c(C#N)c2c1CCC2` to `Cc1nc(SCC(=O)O)c(C#N)c2c1CCCC2`, the solubility kinetic rises from 3.4 µg/mL (≈ 14.5 µM) to > 39.3 µg/mL.

`COc1cccc(NC(=O)CSc2cccc[n+]2[O-])c1` and `O=C(c1ccccc1)c1cccc[n+]1[O-]` cannot be ordered by solubility kinetic: > 43.6 µg/mL for the first, > 29.9 µg/mL for the second.

`Cn1c(=O)c2ccccc2n(CC(=O)NC2CCCC2)c1=O` and `Cn1c(C2CCCCC2)nc2ccccc21` cannot be ordered by solubility kinetic: 40.2 µg/mL (≈ 133 µM) for the first, > 32.1 µg/mL for the second.

Compared with `NC(=O)C1CCN(C(=O)COc2ccc3c4c(c(=O)oc3c2)CCCC4)CC1`, `Cc1ccc(OCCCCN2CCCCC2)c(C)c1` is lower in solubility kinetic: > 57.7 µg/mL for the first, 19.6 µg/mL (≈ 75 µM) for the second.

Going from `Cc1cc(=O)[nH]c(-c2ccccc2OC(F)(F)F)n1` to `Cc1ccc(C)c(C(=O)Nc2nc3ccccc3[nH]2)c1`, the solubility kinetic falls from > 40.5 µg/mL to 0.4 µg/mL (≈ 1.51 µM).

Going from `CC1SCC(=NOCc2ccccc2)CS1` (stereo not given) to `COc1cc(NC(=O)Cc2ccccc2)nc(OC)n1`, the solubility kinetic rises from 11.5 µg/mL (≈ 45.4 µM) to > 41 µg/mL.

Compared with `CN(C)/C=N/c1nccc(-c2cccs2)n1`, `CN(C(=O)c1ccco1)c1nc(-c2ccccc2)cs1` is lower in solubility kinetic: > 34.8 µg/mL for the first, < 0.3 µg/mL for the second.

Compared with `Cc1occc1C(=O)O/N=C(\N)c1ccccc1`, `O=C(/C=C/c1ccccc1)NCCc1nc2ccccc2[nH]1` is 1.5-fold lower in solubility kinetic: 36.1 µg/mL (≈ 148 µM) for the first, 23.7 µg/mL (≈ 81.3 µM) for the second.

First: CCN(C(=O)COC(=O)/C=C/c1ccc(F)cc1)C1CCCCC1
Second: CN(C(=O)c1ccc(Oc2ccc([N+](=O)[O-])cc2)cc1)C1CCCCC1
The solubility kinetic of the first is 43-fold higher: 42.8 µg/mL (≈ 128 µM) for the first, 1 µg/mL (≈ 2.82 µM) for the second.

First: CC(=O)c1ccc(-n2c(CCC(=O)O)ccc2-c2ccccc2)cc1
Second: COc1ccc2ccc(O)c(CN3CC=C(c4ccccc4)CC3)c2c1
The solubility kinetic of the first is 26-fold higher: 41.5 µg/mL (≈ 124 µM) for the first, 1.6 µg/mL (≈ 4.63 µM) for the second.

First: S=C(Nc1ccc2c(c1)OCO2)Nc1ccccc1Cl
Second: Cc1ccc(S(N)(=O)=O)cc1NC(=O)/C=C/c1ccc2c(c1)OCO2
The solubility kinetic of the first is 15-fold higher: 32.5 µg/mL (≈ 106 µM) for the first, 2.1 µg/mL (≈ 5.83 µM) for the second.

`O=C(c1ccc([N+](=O)[O-])cc1Cl)N1CCN(c2ccccn2)CC1` and `CN1CCN(c2c(F)cc([N+](=O)[O-])c(N)c2Br)CC1` cannot be ordered by solubility kinetic: > 52 µg/mL for the first, > 50 µg/mL for the second.

Compared with `COc1ccc(OC)c2nc3c(cc12)CCC3`, `COc1ccc(CCC(=O)Nc2nccs2)cc1OC` is higher in solubility kinetic: 29 µg/mL (≈ 126 µM) for the first, > 43.9 µg/mL for the second.

Going from `Cc1ccc2nc(Nc3ncc4c(n3)CC(C)(C)CC4=O)nc(C)c2c1` to `Cc1ccc(CNc2nc(C)c(C(=O)N(C)C)s2)cc1`, the solubility kinetic rises from 10.5 µg/mL (≈ 30.2 µM) to > 43.4 µg/mL.

Compared with `CCOCCCNC(=O)/C(C#N)=C/c1ccccc1F`, `CCCCSCCCNC(=S)Nc1ccccc1C` is lower in solubility kinetic: > 41.4 µg/mL for the first, 35.3 µg/mL (≈ 119 µM) for the second.

`COc1ccc(OC)c(NC(=O)c2cccnc2)c1` and `COc1ccc(C(CNC(=O)c2cc(C)on2)N(C)C)cc1` (stereo not given) cannot be ordered by solubility kinetic: > 38.7 µg/mL for the first, 45.3 µg/mL (≈ 149 µM) for the second.

`CCOc1ccccc1CNCC1CCCO1.Cl` (stereo not given) and `O=C(NCC1CCCO1)c1csc(Nc2cccc3ccccc23)n1` (stereo not given) are within 1.5-fold of each other in solubility kinetic: 31.5 µg/mL for the first, 28.5 µg/mL (≈ 80.6 µM) for the second.

Going from `COc1ccc(CCN=C(N)Nc2nc(C)cc(C)n2)cc1` to `Nc1nc(Cl)cc(Oc2ccc(Cl)cc2)n1`, the solubility kinetic falls from 36.5 µg/mL (≈ 122 µM) to 1 µg/mL (≈ 3.9 µM) (36-fold).

First: NS(=O)(=O)c1ccc(Nc2c([N+](=O)[O-])cncc2[N+](=O)[O-])cc1
Second: NS(=O)(=O)c1cccc(NC(=O)CCC(=O)c2cccs2)c1
The solubility kinetic of the first is lower: 50.4 µg/mL (≈ 149 µM) for the first, > 50.8 µg/mL for the second.

`CC(C)(C)c1ccc(OC(=O)N2CCOCC2)cc1` and `CCOC(=O)c1cc(S(=O)(=O)N2CCOCC2)cn1C` are within 1.5-fold of each other in solubility kinetic: 31.9 µg/mL (≈ 121 µM) for the first, 45.1 µg/mL (≈ 149 µM) for the second.

Compared with `O=C(NCCCn1ccnc1)c1ccc(OCC(F)(F)F)cc1`, `CCNC(=O)c1ccc(N(C)S(=O)(=O)c2cccs2)cc1` is higher in solubility kinetic: 43.4 µg/mL (≈ 133 µM) for the first, > 48.7 µg/mL for the second.

Going from `COc1ccc(C2(O)C(=O)Nc3ccc(C)cc32)cc1` (stereo not given) to `Cc1csc(Nc2ccc(Cl)cc2)n1`, the solubility kinetic falls from > 40.4 µg/mL to 10.5 µg/mL (≈ 46.7 µM).

First: CCOC(=O)c1csc(NC(=O)c2ccc(C#N)cc2)n1
Second: CCOC(=O)c1c(C)[nH]c(C)c1C(=O)COC(=O)Cc1ccc(OC)c(OC)c1
The solubility kinetic of the first is lower: 1 µg/mL (≈ 3.32 µM) for the first, > 60.5 µg/mL for the second.

Going from `Cc1cccc(N2CCN(Cc3nc(C4CC4)no3)CC2)n1` to `O=C(CCN1CCN(CCO)CC1)Nc1cccc(Br)c1`, the solubility kinetic rises from 37.8 µg/mL (≈ 126 µM) to > 53.4 µg/mL.

`COc1ccccc1NC(=O)CNC(=O)CC12CC3CC(CC(C3)C1)C2` and `Cc1cccc(NC(=O)NCC2CC2)c1` cannot be ordered by solubility kinetic: 43.1 µg/mL (≈ 121 µM) for the first, > 30.6 µg/mL for the second.

Going from `O=S(=O)(Cc1ccccc1)Nc1ccccc1` to `O=C1/C(=C/c2ccncc2)CCc2ccccc21`, the solubility kinetic falls from > 37.1 µg/mL to 34.2 µg/mL (≈ 145 µM).

Going from `CC(C(N)=O)N1C(=O)NC2(CCCc3ccccc32)C1=O` (stereo not given) to `C[C@@H]1NC(=O)/C(=C\c2ccccc2Br)NC1=O`, the solubility kinetic falls from > 43.1 µg/mL to 13.1 µg/mL (≈ 44.4 µM).
